Results: patent EP0255256A2, “Antibiotics produced by actinomadura parvosata” (SMITHKLINE BECKMAN CORPORATION, priority 1986, dated 1988)
Values after ≈ are worked out from the molar mass of the structure shown. Where two headings read alike, the source gives them in different places.

Experiments:
Staph. aureus 2630 = experiment: Mouse protection assay; type: in vivo; details: Staphylococcus aureus, 2630, 1 h
Staph. epidermidis 2479 [1] = experiment: MBC, standard assay procedures; type: cell-based
Protocol: (§1) The in vitro minimal bactericidal concentration (MBC) of the AAJ-271 C, C2 and C3 factors and vancomycin were determined for a number of microorganisms using standard assay procedures.
(§2) The in vitro minimal inhibitory concentration (MIC) and the in vitro minimal bactericidal concentration (MBC) of the AAJ-271 aglycones, pseudo-aglycone and vancomycin were determined for a number of microorganisms using the standard microtiter assay procedures.

Strep. faecalis 34358 [2] = experiment: MBC, standard assay procedures; type: cell-based
Protocol: as §1, §2

Staph. aureus 2620 [3] = experiment: MBC, standard assay procedures; type: cell-based
Protocol: as §1, §2

Strep. faecalis 657 [4] = experiment: MBC, standard assay procedures; type: cell-based
Protocol: as §1, §2

Strep. faecalis 34358 [5] = experiment: Mouse protection assay; type: in vivo
[6] = Serum half-life and urine concentration in mice (disk agar diffusion bioassay); details: mouse, in vivo; strain CD-1 mice; antibiotic activity in blood serum by disk agar diffusion, Bacillus subtilis ATCC 6633 indicator
Protocol: The antibiotic compounds of the present invention also have a very long serum half-life. The compounds of the present invention have a serum half-life of 12 hours compared to 0.3 hour for vancomycin. […] Antibiotic activity in blood serum was evaluated by disk agar diffusion with penicillin assay agar that was seeded with a Bacillus subtilis ATCC 6633 spore suspension as the indicator. Serum samples were evaluated against standards diluted in mouse serum and urines were evaluated against standards prepared in 1% pH 6 phosphate buffer. Assays were incubated at 28°C. […] The long half-life of the compounds of the present invention indicate usefulness prophylactically as an aid in prevention of infection.

Staph. aureus 910 = experiment: MIC, standard microtiter assay; type: cell-based
Protocol: (§3) The in vitro minimal inhibitory concentration (MIC) of the AAJ-271 complex and its factors, and vancomycin were determined for a number of microorganisms using the standard microtite'r assay procedures. The results are shown in the following tables, each of which represents a different production run of the complex.
as §2

Staph. epidermidis 2479 [7] = experiment: MIC, standard microtiter assay; type: cell-based; details: Staphylococcus epidermidis, 2479, read-out: MIC in μg/ml, Staph. epidermidis 2479
Protocol: as §3, §2

[8] = test system: Staph. saprophyticus 2657; experiment: MIC, standard microtiter assay; type: cell-based; details: Staphylococcus saprophyticus, 2657, read-out: MIC in μg/ml, Staph. saprophyticus 2657
Protocol: as §3, §2

Staph. epidermidis 2256 = experiment: MIC, standard microtiter assay; type: cell-based; details: Staphylococcus epidermidis, 2256, read-out: MIC in μg/ml, Staph. epidermidis 2256
Protocol: as §3, §2

Staph. aureus HH127 = experiment: MIC, standard microtiter assay; type: cell-based; details: Staphylococcus aureus, HH127, read-out: MIC in μg/ml, Staph. aureus HH127
Protocol: as §3, §2

Strep. faecalis 34358 [9] = experiment: MIC, standard microtiter assay; type: cell-based; details: Enterococcus faecalis, 34358, read-out: MIC in μg/ml, Strep. faecalis 34358
Protocol: as §3, §2

[10] = test system: Strep. pyogenes (Group A); experiment: MIC, standard microtiter assay; type: cell-based
Protocol: as §3, §2

Staph. aureus 209P = experiment: MIC, standard microtiter assay; type: cell-based; details: Staphylococcus aureus, 209P, read-out: MIC in μg/ml, Staph. aureus 209P
Protocol: as §3, §2

Staph. aureus 2620 [11] = experiment: MIC, standard microtiter assay; type: cell-based; details: Staphylococcus aureus, 2620, read-out: MIC in μg/ml, Staph. aureus 2620
Protocol: as §3, §2

Staph. aureus 675 = experiment: MIC, standard microtiter assay; type: cell-based; details: Staphylococcus aureus, 675, read-out: MIC in μg/ml, Staph. aureus 675
Protocol: as §3, §2

Staph. haemolyticus 651 = experiment: MIC, standard microtiter assay; type: cell-based
Protocol: as §3, §2

Staph. epidermidis 2588 = experiment: MIC, standard microtiter assay; type: cell-based; details: Staphylococcus epidermidis, 2588, read-out: MIC in μg/ml, Staph. epidermidis 2588
Protocol: as §3, §2

Staph. epidermidis 2265 = experiment: MIC, standard microtiter assay; type: cell-based; details: Staphylococcus epidermidis, 2265, read-out: MIC in μg/ml, Staph. epidermidis 2265
Protocol: as §3, §2

Strep. faecalis 657 [12] = experiment: MIC, standard microtiter assay; type: cell-based; details: Enterococcus faecalis, 657, read-out: MIC in μg/ml, Strep. faecalis 657
Protocol: as §3, §2

CN[C@H](CC(C)C)C(=O)N[C@H]1C(=O)N[C@@H](CC(N)=O)C(=O)N[C@H]2C(=O)N[C@H]3C(=O)N[C@H](C(=O)N[C@H](C(=O)O)c4cc(O)cc(O)c4-c4cc3ccc4O)[C@H](O)c3ccc(c(Cl)c3)Oc3cc2cc(c3O[C@@H]2O[C@H](CO)[C@@H](O)[C@H](O)[C@H]2O[C@H]2C[C@](C)(N)[C@H](O)[C@H](C)O2)Oc2ccc(cc2Cl)[C@H]1O [Vancomycin, vancomycin]
ED50 (Staph. aureus 2630): 0.78 mg/kg
MBC (Staph. epidermidis 2479 [1]; Staph. epidermidis 2479, Table IX): 6.3 µg/mL (≈ 4.35 µM)
MBC (Staph. epidermidis 2479 [1]; Staphylococcus epidermidis, 2479, read-out: MBC in μg/ml): 6.3 µg/mL (≈ 4.35 µM)
MBC (Staph. epidermidis 2479 [1]; Staphylococcus epidermidis, IIIB, read-out: MBC in μg/ml): 6.3 µg/mL (≈ 4.35 µM)
MBC (Strep. faecalis 34358 [2]; Enterococcus faecalis, 34358, read-out: MBC in μg/ml, Strep. faecalis 34358, Table IX): 12.5 µg/mL (≈ 8.63 µM)
MBC (Strep. faecalis 34358 [2]; Enterococcus faecalis, 34358, read-out: MBC in μg/ml, Strep. faecalis 34358, Table VIII): 50 µg/mL (≈ 34.5 µM)
MBC (Strep. faecalis 34358 [2]; Enterococcus faecalis, read-out: MBC in μg/ml, Strep. faecalis 34358, Table): 12.5 µg/mL (≈ 8.63 µM)
MBC (Staph. aureus 2620 [3]; Staphylococcus aureus, 2620, read-out: MBC in μg/ml, Staph. aureus 2620, Table IX): 3.1 µg/mL (≈ 2.14 µM)
MBC (Staph. aureus 2620 [3]; Staphylococcus aureus, 2620, read-out: MBC in μg/ml, Staph. aureus 2620, Table VIII): 1.6 µg/mL (≈ 1.1 µM)
MBC (Staph. aureus 2620 [3]; Staphylococcus aureus, IIIB, read-out: MBC in μg/ml, Staph. aureus 2620, Table IIIB): 3.1 µg/mL (≈ 2.14 µM)
MBC (Strep. faecalis 657 [4]; Enterococcus faecalis, 657, read-out: MBC in μg/ml, Strep. faecalis 657, Table IX): 6.3 µg/mL (≈ 4.35 µM)
MBC (Strep. faecalis 657 [4]; Enterococcus faecalis, 657, read-out: MBC in μg/ml, Strep. faecalis 657, Table VIII): 3.1 µg/mL (≈ 2.14 µM)
MBC (Strep. faecalis 657 [4]; Enterococcus faecalis, IIIB, read-out: MBC in μg/ml, Strep. faecalis 657, Table IIIB): 6.3 µg/mL (≈ 4.35 µM)
ED50 (Strep. faecalis 34358 [5]; Enterococcus faecalis, 34358, 1 h): 1.25 mg/kg
ED50 (Strep. faecalis 34358 [5]; Enterococcus faecalis, 34358, iv, 1 h): 1.3 mg/kg
half-life [6]: 18 min
MIC (Staph. aureus 910; Staph. aureus 910, Table VIII): 1.6 µg/mL (≈ 1.1 µM)
MIC (Staph. aureus 910; Staphylococcus aureus, 910, read-out: MIC in μg/ml): 1.6 µg/mL (≈ 1.1 µM)
MIC (Staph. epidermidis 2479 [7]; Table I): 1.6 µg/mL (≈ 1.1 µM)
MIC (Staph. epidermidis 2479 [7]; Table II): 6.3 µg/mL (≈ 4.35 µM)
MIC (Staph. epidermidis 2479 [7]; Table IX): 6.3 µg/mL (≈ 4.35 µM)
MIC (Staph. epidermidis 2479 [7]; Table VIII): 3.1 µg/mL (≈ 2.14 µM)
MIC ([8]; Table I): 1.6 µg/mL (≈ 1.1 µM)
MIC ([8]; Table VIII): 3.1 µg/mL (≈ 2.14 µM)
MIC (Staph. epidermidis 2256; Table I): 1.6 µg/mL (≈ 1.1 µM)
MIC (Staph. epidermidis 2256; Table VIII): 3.1 µg/mL (≈ 2.14 µM)
MIC (Staph. aureus HH127; Table I): 1.6 µg/mL (≈ 1.1 µM)
MIC (Staph. aureus HH127; Table II): 3.1 µg/mL (≈ 2.14 µM)
MIC (Staph. aureus HH127; Table IX): 3.1 µg/mL (≈ 2.14 µM)
MIC (Staph. aureus HH127; Table VIII): 1.6 µg/mL (≈ 1.1 µM)
MIC (Strep. faecalis 34358 [9]; Table I): 1.6 µg/mL (≈ 1.1 µM)
MIC (Strep. faecalis 34358 [9]; Table II): 6.3 µg/mL (≈ 4.35 µM)
MIC (Strep. faecalis 34358 [9]; Table IX): 6.3 µg/mL (≈ 4.35 µM)
MIC (Strep. faecalis 34358 [9]; Table VIII): 3.1 µg/mL (≈ 2.14 µM)
MIC ([10]; Strep. pyogenes (Group A), Table VIII): 0.8 µg/mL (≈ 0.552 µM)
MIC ([10]; Streptococcus pyogenes, read-out: MIC in μg/ml): 0.8 µg/mL (≈ 0.552 µM)
MIC (Staph. aureus 209P; Table I): 1.6 µg/mL (≈ 1.1 µM)
MIC (Staph. aureus 209P; Table VIII): 0.8 µg/mL (≈ 0.552 µM)
MIC (Staph. aureus 2620 [11]; Table I): 1.6 µg/mL (≈ 1.1 µM)
MIC (Staph. aureus 2620 [11]; Table II): 3.1 µg/mL (≈ 2.14 µM)
MIC (Staph. aureus 2620 [11]; Table IX): 3.1 µg/mL (≈ 2.14 µM)
MIC (Staph. aureus 2620 [11]; Table VIII): 1.6 µg/mL (≈ 1.1 µM)
MIC (Staph. aureus 675; Table I): 1.6 µg/mL (≈ 1.1 µM)
MIC (Staph. aureus 675; Table II): 3.1 µg/mL (≈ 2.14 µM)
MIC (Staph. aureus 675; Table IX): 3.1 µg/mL (≈ 2.14 µM)
MIC (Staph. aureus 675; Table VIII): 3.1 µg/mL (≈ 2.14 µM)
MIC (Staph. haemolyticus 651; Staph. haemolyticus 651, Table II): 3.1 µg/mL (≈ 2.14 µM)
MIC (Staph. haemolyticus 651; Staph. haemolyticus 651, Table IX): 3.1 µg/mL (≈ 2.14 µM)
MIC (Staph. haemolyticus 651; Staph. haemolyticus 651, Table VIII): 3.1 µg/mL (≈ 2.14 µM)
MIC (Staph. haemolyticus 651; Staphylococcus haemolyticus, 651, read-out: MIC in μg/ml): 3.1 µg/mL (≈ 2.14 µM)
MIC (Staph. epidermidis 2588; Table I): 1.6 µg/mL (≈ 1.1 µM)
MIC (Staph. epidermidis 2588; Table VIII): 6.3 µg/mL (≈ 4.35 µM)
MIC (Staph. epidermidis 2265; Table I): 1.6 µg/mL (≈ 1.1 µM)
MIC (Staph. epidermidis 2265; Table II): 6.3 µg/mL (≈ 4.35 µM)
MIC (Staph. epidermidis 2265; Table IX): 6.3 µg/mL (≈ 4.35 µM)
MIC (Staph. epidermidis 2265; Table VIII): 3.1 µg/mL (≈ 2.14 µM)
MIC (Strep. faecalis 657 [12]; Table I): 1.6 µg/mL (≈ 1.1 µM)
MIC (Strep. faecalis 657 [12]; Table II): 3.1 µg/mL (≈ 2.14 µM)
MIC (Strep. faecalis 657 [12]; Table IX): 3.1 µg/mL (≈ 2.14 µM)
MIC (Strep. faecalis 657 [12]; Table VIII): 3.1 µg/mL (≈ 2.14 µM)
